Laboratory results from patent publication US20220193029A1, “BRYOSTATIN COMPOUNDS FOR ENHANCEMENT OF IMMUNOTHERAPY” (priority 2019, published 2022).

How the values were obtained:
PKCδ-GFP fusion protein = test: PKCδ-GFP translocation assay in living CHO-k1 cells (confocal microscopy); format: cell-based, Chinese hamster
Method: (§1) Because a prerequisite for PKC pathway involvement is binding to PKC, compounds were initially evaluated for PKC affinity in a cell-free competitive binding assay with tritiated phorbol dibutyrate ([^3H]-PDBu). Assays were performed with representative members of both the conventional (PKCα) and novel (PKCδ) PKC families. Subsequently, compounds were assayed for PKC activation in living cells using an isoform translocation assay.
Chinese hamster ovary factor K1 (CHO-k1, ATCC) cells were cultured in F-12 Kaighn's media (Hyclone, 10% fetal bovine serum, 1% penicillin/streptomycin added, referred to as F-12+/+ below) at 37° C. in an incubator (5% CO2). Cell cultures were maintained by splitting cells 1:3 when they reached ˜75-100% confluence (every 2-3 days) as follows:
1 mL of the cell suspension was then added to 9 mL of fresh F-12+/+ and the sample was sub-cultured until reaching confluence (˜2-3 days).
Cells were counted using a Countess II Automated Cell Counter (Fisher). The cell suspension was diluted to 240,000 cells/mL with fresh F-12+/+ and 2.5 mL of this diluted stock was added to one well in a 6-well plate. The cells were then cultured for 24 hours.
F-12+/+ was aspirated and cells were washed with F-12−/−. 2 mL of fresh F-12−/− was then added to each well, taking care not to disturb adherent cells. For each well of CHO-k1 cells, 12.5 μL Lipofectamine 2000 reagent (Invitrogen) was added to 250 μL Opti-MEM reduced serum media (Invitrogen) in a polypropylene tube and incubated for 20 minutes at RT. Meanwhile, for each well, 4 μg of PKCδ-GFP pDNA and 250 μL Opti-MEM reduced serum media was added to a separate polypropylene tube. 250 μL of the Lipofectamine 2000 suspension was added to the DNA suspension and the solution incubated for 30 minutes at RT. 500 μL of the Lipofectamine/DNA suspension was added to the respective wells of the 6-well plate. The cells were then incubated at 37° C. (5% CO2) for ˜24 hrs.
F-12+/+ was aspirated and cells were washed with F-12−/−. 2.4 mL of fresh F-12−/− was then added to each well, taking care not to disturb adherent cells. A 4 μg aliquot of PKCδ-GFP pDNA was added to PBS (pH 5.5, final volume 100 μL). 5.6 μL of DA 13:11 (2 mM stock in DMSO) was then added to the DNA solution, and the mixture was gently mixed (by flicking) for 20 seconds, at which point it was added directly to the respective wells of the 6-well plate. The cells were then incubated at 37° C. (5% C02) for ˜24 hrs.
After incubation, the media was aspirated and cells were washed with PBS (2.0 mL) and trypsinized (500 μL). The cell suspension was then diluted with 2.0 mL F-12+/+. 200 μL aliquots were added to 3 wells of a Lab-Tek II 4-well chambered coverglass slide (Fisher), producing 4 slides in total, each with three wells of cells. The cell suspension was directly diluted with 600 μL of additional F-12+/+. The resulting samples were incubated for ˜24 hrs. prior to imaging.
Fluorescent images were obtained using a Leica SP8 White Light Confocal microscope and the Leica AF software package. Prior to analysis, media was aspirated and 800 μL of PBS (Hyclone, without Ca^2+ or Mg^2+) supplemented with glucose (10 mM) was added to each well of the chambered coverglass slide. Bryostatin and bryostatin analogs were diluted to the appropriate concentration in 200 μL of 10 mM glucose in PBS. Cells were located for imaging and data was recorded for three wells in parallel, imaging at predetermined positions in each well using adaptive focus control. Cells were imaged at 30 second intervals following the addition of compound (set to t=0) for 20-40 minutes. Data were recorded at room temperature. Images were exported as .lif files and fluorescence intensity was analyzed using FIJI (NIH) software.

PKCα = target: T1, PKCα (Homo sapiens, UniProt P17252); test: cell-free competitive PKC binding assay with [3H]-phorbol dibutyrate; conditions: competition with [3H]-PDBu, recombinant human PKC isoform
T1 construct: purchased Invitrogen
Method: as §1
(§2) To a 50 mL polypropylene tube was added Tris-HCl (pH 7.4, 1 M, 1 mL), KCl (1 M, 2 mL), CaCl2) (0.1 M, 30 μL), and bovine serum albumin (BSA, 40 mg, Sigma-Aldrich). This mixture was diluted to 20 mL with deionized H2O and mixed gently. The buffer was stored on ice until use.
(§3) For every two assays, 3.5 mg phosphatidylserine (Avanti Polar Lipids, porcine, 25 mg/mL CHCl3 solution) was concentrated by removing chloroform under a stream of nitrogen followed by reduced pressure. The solid PS was suspended as vesicles in freshly prepared PKC binding assay buffer (3.5 mL) by sonicating six times for 30 sec, with a 30 sec rest between sonications (Branson Sonifier 250, power=2, 50% duty cycle). The resulting milky cloudy mixture (1 mg/mL) was stored on ice until use.
(§4) Assay PKC was prepared by dissolving a 4 μg aliquot of the indicated recombinant human PKC isoform (Invitrogen) into 11.6 mL of PKC binding assay buffer (this amount is sufficient for two assays). The diluted PKC was stored on ice for immediate use.
(§5) ^3H-PDBu (American Radiolabeled Chemicals, Inc.; 1 mCi/mL acetone solution; specific activity: 20 Ci/mmol) was diluted […] with DMSO. The resulting 500 nM stock solution was further diluted with DMSO to 30 nM.
(§6) Compound dilutions were prepared by serially diluting from a chosen “high” concentration by factors of 3 or 4.
(§7) To a polypropylene tube was added 3.3 mL of 1 mg/mL PS vesicles solution, 11 mL of PKC isoform solution, and 1.1 mL of 30 nM ^3H-PDBu solution were added. The resulting solution was vortexed to mix and stored on ice.
(§8) Materials: • Glass-fiber filters (Whatman GF/B) were prepared by soaking them in a solution of aqueous polyethyleneimine (10% by vol, 18 mL) in deionized water (600 mL) for ≥1 h. • 500 mL “rinsing buffer” of 20 mM Tris, pH 7.4 was cooled on ice for the duration of the incubation period and for the remainder of the assay.
(§9) Triplicate data points were obtained for each analog concentration. For each data point, 280 μL of “Master Mix” Solution and 20 μL of analog compound at a specified concentration were added to a polypropylene tube. […] Maximal ^3H-PDBu binding was assessed in triplicate by substitution of the analog compound with 20 μL DMSO. The solutions were vortexed to mix, incubated at 37° C. for 10 min, and incubated on ice for at least 30 min prior to filtration. Using a Brandel Harvester, the assay contents from each polypropylene tube were vacuum-filtered through polyethylenimine-soaked filters, washing with rinsing buffer (3×) and drying first under vacuum for 5 min and then under ambient conditions for ≥2 h. The resulting filters had circular perforations for each data point, which were removed with forceps and placed in a scintillation vial. Scintillation vials were filled with Bio-Safe II scintillation fluid (5 mL) and measured for radioactivity using a Beckman LS 6000SC scintillation counter. Counts per minute (cpm) were averaged for each triplicate dilution. The data were plotted—cpm vs. log(concentration)—using Prism® by GraphPad Software and an IC50 was determined using that program's built-in one-site competition least squares regression function. Ki values were calculated using the equation: Ki=IC50/(1+([3H−PDBu]/Kd)). The Kd of ^3H-PDBu for PKC isoforms was measured separately via saturation binding experiments under identical conditions.

PKC = test: cell-free PKC binding assay, isoform not given; parameters: species or system human
Method: as §1, §4, §9

PKCδ = target: T2, PKCδ (Homo sapiens, UniProt Q05655); test: cell-free competitive PKC binding assay with [3H]-phorbol dibutyrate; conditions: competition with [3H]-PDBu, recombinant human PKC isoform
T2 construct: purchased Invitrogen
Method: as §1, §2, §3, §4, §5, §6, §7, §8
Triplicate data points were obtained for each analog concentration. For each data point, 280 μL of “Master Mix” Solution and 20 μL of analog compound at a specified concentration were added to a polypropylene tube. […] Maximal ^3H-PDBu binding was assessed in triplicate by substitution of the analog compound with 20 μL DMSO. The solutions were vortexed to mix, incubated at 37° C. for 10 min, and incubated on ice for at least 30 min prior to filtration. Using a Brandel Harvester, the assay contents from each polypropylene tube were vacuum-filtered through polyethylenimine-soaked filters, washing with rinsing buffer (3×) and drying first under vacuum for 5 min and then under ambient conditions for ≥2 h. The resulting filters had circular perforations for each data point, which were removed with forceps and placed in a scintillation vial. Scintillation vials were filled with Bio-Safe II scintillation fluid (5 mL) and measured for radioactivity using a Beckman LS 6000SC scintillation counter. Counts per minute (cpm) were averaged for each triplicate dilution. The data were plotted—cpm vs. log(concentration)—using Prism® by GraphPad Software and an IC50 was determined using that program's built-in one-site competition least squares regression function. […] The Kd of ^3H-PDBu for PKC isoforms was measured separately via saturation binding experiments under identical conditions.

[1] = system: CD22 surface expression in NALM6 cells; test: CD22 surface expression assay by flow cytometry; format: cell-based, human
Method: Cell cultures were maintained between 4×10^5 and 3×10^6 cells/mL according to vendor instructions.
Cell suspension from a confluent T75 flask (Fisher) was transferred to a 15 mL falcon tube and centrifuged at 1100 rpm for 7 minutes. […] Cells were counted using a Countess II Automated Cell Counter (Fisher). […] 199 μL of this stock was added to 24 wells (enough for triplicate measurements for 8 different experimental conditions) in a 96-well plate. […] 1 μL of DMSO or the appropriate stock solution of compound in DMSO was added to each well. Cells were incubated for 24 hours, at which point the cell suspensions were transferred to 1.5 mL Eppendorf tubes and diluted with 1.0 mL of PBS (Hyclone, without Ca^2+ or Mg^2+). Samples were centrifuged at 2000 rpm for 5 min at RT. […] Cells were sub-cultured between 2×10^5 and 3×10^6 cells/mL in 24-well plates for an additional 24 hrs-7 days, at which point CD22 surface expression was assayed by flow cytometry.
Cells from one well were counted using a Countess II Automated Cell Counter (Fisher). ˜200,000-300,000 cells from each well were added to 1.5 mL Eppendorf tubes containing PBS (final volume ˜1.2 mL). The cell suspensions were centrifuged at 1500 rpm for 7 minutes at 4° C. The supernatant was aspirated, and the cell pellet was resuspended in 99 μL of pre-chilled FACS buffer (0.5% w/v BSA in PBS). […] Samples were then diluted with an additional 1.0 mL of FACS buffer and centrifuged at 1500 rpm for 7 minutes at 4° C. […] Cells were stained with DAPI and CD22 surface expression was analyzed using the FACScan Analyzer at the Stanford Shared FACS Facility. Data analysis was performed using FlowJo and Microsoft Excel.

[2] = system: CD22 surface expression in 2F7 cells; test: CD22 surface expression assay, AIDS-NHL cell line 2F7; conditions: 1 nM or 10 nM, 48 hours
Method: (§10) AIDS-NHL cell lines were incubated in IF10 medium, consisting of IMDM medium (Life technologies) containing 10% fetal bovine serum (FBS, Omega Scientific), 100 units/mL of penicillin, and 100 μg/ml of streptomycin (Invitrogen). Cells were incubated at 37° C. in 5% CO2.
(§11) Cells were exposed to compound for the either 24 or 48 h before staining and flow cytometric analysis of receptor levels.
(§12) Cells in each well were washed with phosphate buffered saline (PBS) containing 2% FBS, then cells were centrifuged for 9 min at 233 xg and resuspended in 50 μL of a 1:1 dilution of phosphate buffered saline (PBS): Human AB serum (Sigma). […] Stained samples were stored at 4° C. Flow cytometry samples were analyzed using a FACSCelesta (BD Biosciences) flow cytometer and data were analyzed using FlowJo software (version 10).
(§13) Panel C: JB cells were incubated with 1 nM (left hand bars) or 10 nM (right hand bars) of compound for 48 hours. CD22 surface expression was then assayed by flow cytometry (n=6 biological replicates; data presented as mean values ±SE). Panel D: 2F7 cells were incubated with 1 nM (left hand bars) or 10 nM (right hand bars) of compound for 48 hours. CD22 surface expression was then assayed by flow cytometry (n=6 biological replicates; data presented as mean values ±SE).

NALM6 tumor cells = test: NSG mice with NALM6 tumor cells treated with CD22 CAR T cells plus bryostatin 1; conditions: NALM6 tumor cells day 0, CD22 CAR day 3, bryostatin 1 three times weekly for 2 weeks
Text: Mice were imaged using IVIS™ technology and luciferin-D IP injections.

[3] = system: CD22 surface expression in JB cells; test: CD22 surface expression assay, AIDS-NHL cell line JB; conditions: 1 nM or 10 nM, 48 hours
Method: as §10, §11, §12, §13

T2 sequence (Q05655 whole entry, canonical isoform): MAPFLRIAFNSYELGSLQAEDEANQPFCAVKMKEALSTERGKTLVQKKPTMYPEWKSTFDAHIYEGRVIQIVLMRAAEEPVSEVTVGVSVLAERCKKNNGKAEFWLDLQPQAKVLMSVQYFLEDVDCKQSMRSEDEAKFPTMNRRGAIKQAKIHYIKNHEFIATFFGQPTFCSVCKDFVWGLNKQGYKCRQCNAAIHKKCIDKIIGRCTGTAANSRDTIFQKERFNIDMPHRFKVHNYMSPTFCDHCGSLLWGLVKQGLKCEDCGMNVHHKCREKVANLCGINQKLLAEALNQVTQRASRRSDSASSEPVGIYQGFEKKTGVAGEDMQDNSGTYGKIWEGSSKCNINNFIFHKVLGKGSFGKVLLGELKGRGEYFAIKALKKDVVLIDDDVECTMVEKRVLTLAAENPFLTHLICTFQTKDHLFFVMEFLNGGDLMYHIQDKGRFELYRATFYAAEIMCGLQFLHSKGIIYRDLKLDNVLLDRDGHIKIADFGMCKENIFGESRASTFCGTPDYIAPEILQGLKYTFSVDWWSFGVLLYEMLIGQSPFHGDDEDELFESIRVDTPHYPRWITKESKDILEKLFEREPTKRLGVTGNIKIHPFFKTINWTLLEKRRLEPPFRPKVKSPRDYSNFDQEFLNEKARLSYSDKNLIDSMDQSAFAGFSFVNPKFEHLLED

Row | Compound | activity in the PKC translocation assay at 200 nM (PKCδ-GFP fusion protein; 200 nM) | cytosolic PKC translocated to the plasma membrane (PKCδ-GFP fusion protein; 1000 nM, at about 5 minutes) [%] | concentration* (minimum effective concentration required to induce translocation of PKC-GFP to the membrane) (PKCδ-GFP fusion protein; CHO-k1 cells) [nM] | % Translocation (PKCδ-GFP fusion protein; maximum translocation of PKCδ-GFP to the plasma membrane at the concentration printed in the same cell, CHO-k1 cells, SUW212: only brief translocation observed) [%] | Ki (PKCα) [nM] | binding affinity to PKC, in words (PKC) | Ki (PKCδ) [nM] | time for which increased CD22 surface expression was sustained following treatment ([1]; 10 nM for 24 hours, then washed out and sub-cultured) | increase in CD22 surface density ([1]; NALM6 cells incubated 24 hours, flow cytometry) [fold] | upregulated CD22 surface expression [2] [fold] | durability of response to CD22 CAR T cell treatment (NALM6 tumor cells) | upregulated CD22 surface expression [3] [fold]
1 | CCCC=CC=CC(=O)OC1C(=CC(=O)OC)CC2CC(C(C)O)OC(=O)CC(O)CC3CC(OC(C)=O)C(C)(C)C(O)(CC4CC(OC(=O)CC56CC7CC(CC(C7)C5)C6)CC(C=CC(C)(C)C1(O)O2)O4)O3 (centres unmarked) [SUW209] | inactive | ~70 | 1000 | 60 | 1.6 | high affinity PKC binders | 3.5 | – | – | – | – | –
2 | CCC/C=C/C=C/C(=O)O[C@H]1/C(=C/C(=O)OC)C[C@H]2C[C@H]([C@@H](C)O)OC(=O)C[C@H](O)C[C@@H]3C[C@H](OC(C)=O)C(C)(C)[C@](O)(C[C@@H]4C/C(=C/C(=O)OC)C[C@H](/C=C/C(C)(C)[C@]1(O)O2)O4)O3 [Bryostatin 1, reference compound] | – | – | – | – | 0.8 | single digit nanomolar binder | – | up to 7 days | > 2 | ~2 | improves durability of response | ~2
3 | CCCC=CC=CC(=O)OC1C(=CC(=O)OC)CC2CC(C(C)O)OC(=O)CC(O)CC3CC(OC(C)=O)C(C)(C)C(O)(CC4CC(=CC(=O)OC)CC(C=CC(C)(C)C1(O)O2)O4)O3 (centres unmarked) [SUW201] | – | – | – | – | 0.54 | – | – | – | – | ~2 | – | ~2
